Values of other authors, collected in patent US11478524B1, “Methods and compositions for modulating complex mixtures by selective deletion chromatography” (UNIVERSITY OF SOUTH FLORIDA, priority 2017, dated 2022).
Like-named read-outs stand apart in the source and are kept apart here.

Epigallocatechin-3-gallate [EGCG]
lifespan extension (under heat stress): 13% | effect on longevity (under normal conditions): little effect | lifespan extension (under oxidative stress): 178%
